From patent US12516056B2, “Compounds for inhibition of janus kinase 1” (MANKIND PHARMA LTD., priority 2019, dated 2026)
Where a name gives a salt, the structure may show the parent alone.

What was measured:
Recombinant JAK3 = molecular target: T1, Recombinant JAK3 (Homo sapiens, UniProt P52333); experiment: JAK biochemical assay (LANCE Ultra TR-FRET), JAK3; conditions: recombinant JAK3, TR-FRET; read-out: Biochemical Assay (μM) JAK3
T1 construct: purchased Carna Biosciences
T1 sequence (P52333 1-1124): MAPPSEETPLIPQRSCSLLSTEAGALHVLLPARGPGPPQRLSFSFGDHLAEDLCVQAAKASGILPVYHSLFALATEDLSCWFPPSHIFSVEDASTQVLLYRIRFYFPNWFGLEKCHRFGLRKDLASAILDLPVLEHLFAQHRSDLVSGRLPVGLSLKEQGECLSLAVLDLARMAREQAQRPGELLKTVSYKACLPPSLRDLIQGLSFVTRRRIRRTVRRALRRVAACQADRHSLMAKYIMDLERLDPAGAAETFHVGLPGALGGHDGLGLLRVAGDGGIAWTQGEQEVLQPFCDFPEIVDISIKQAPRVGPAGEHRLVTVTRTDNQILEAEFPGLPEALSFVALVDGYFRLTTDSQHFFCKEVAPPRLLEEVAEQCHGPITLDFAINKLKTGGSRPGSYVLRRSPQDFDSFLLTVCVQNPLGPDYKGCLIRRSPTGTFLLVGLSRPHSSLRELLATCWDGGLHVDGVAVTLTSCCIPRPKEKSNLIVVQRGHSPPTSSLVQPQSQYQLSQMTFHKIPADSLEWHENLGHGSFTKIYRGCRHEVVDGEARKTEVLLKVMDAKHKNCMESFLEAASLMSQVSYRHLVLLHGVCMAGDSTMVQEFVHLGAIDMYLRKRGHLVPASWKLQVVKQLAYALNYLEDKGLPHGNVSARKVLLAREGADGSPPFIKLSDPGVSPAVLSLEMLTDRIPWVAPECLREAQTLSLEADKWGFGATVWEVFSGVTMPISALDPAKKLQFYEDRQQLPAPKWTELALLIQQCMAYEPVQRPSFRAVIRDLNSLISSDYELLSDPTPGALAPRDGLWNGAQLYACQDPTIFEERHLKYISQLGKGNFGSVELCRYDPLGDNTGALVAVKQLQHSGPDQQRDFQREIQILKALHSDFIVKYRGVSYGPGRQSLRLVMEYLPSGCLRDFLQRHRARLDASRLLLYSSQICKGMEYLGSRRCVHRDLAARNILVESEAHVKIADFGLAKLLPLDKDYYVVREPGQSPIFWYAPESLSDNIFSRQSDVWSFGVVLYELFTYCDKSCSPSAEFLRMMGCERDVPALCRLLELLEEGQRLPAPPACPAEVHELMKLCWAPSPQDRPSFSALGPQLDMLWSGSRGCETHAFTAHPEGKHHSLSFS
Experimental: (§1) Recombinant JAK1, JAK2, JAK3 and TYK2 (Carna Biosciences) were used to develop biochemical assays in 50 mM HEPES pH 7.5, 1 mM EGTA, 10 mM MgCl2, 2 mM DTT and 0.01% Tween-20. […] The intensity of the light emission is proportional to the level of ULight substrate phosphorylation. Compounds which interfere with JAK enzyme activity show a lesser substrate phosphorylation and values are projected in terms of % inhibition in comparison to vehicle control.

Recombinant TYK2 = molecular target: T2, Recombinant TYK2 (Homo sapiens, UniProt P29597); experiment: JAK biochemical assay (LANCE Ultra TR-FRET), TYK2; conditions: recombinant TYK2, TR-FRET; read-out: Biochemical Assay (μM) TYK2
T2 construct: purchased Carna Biosciences
T2 sequence (P29597 whole entry): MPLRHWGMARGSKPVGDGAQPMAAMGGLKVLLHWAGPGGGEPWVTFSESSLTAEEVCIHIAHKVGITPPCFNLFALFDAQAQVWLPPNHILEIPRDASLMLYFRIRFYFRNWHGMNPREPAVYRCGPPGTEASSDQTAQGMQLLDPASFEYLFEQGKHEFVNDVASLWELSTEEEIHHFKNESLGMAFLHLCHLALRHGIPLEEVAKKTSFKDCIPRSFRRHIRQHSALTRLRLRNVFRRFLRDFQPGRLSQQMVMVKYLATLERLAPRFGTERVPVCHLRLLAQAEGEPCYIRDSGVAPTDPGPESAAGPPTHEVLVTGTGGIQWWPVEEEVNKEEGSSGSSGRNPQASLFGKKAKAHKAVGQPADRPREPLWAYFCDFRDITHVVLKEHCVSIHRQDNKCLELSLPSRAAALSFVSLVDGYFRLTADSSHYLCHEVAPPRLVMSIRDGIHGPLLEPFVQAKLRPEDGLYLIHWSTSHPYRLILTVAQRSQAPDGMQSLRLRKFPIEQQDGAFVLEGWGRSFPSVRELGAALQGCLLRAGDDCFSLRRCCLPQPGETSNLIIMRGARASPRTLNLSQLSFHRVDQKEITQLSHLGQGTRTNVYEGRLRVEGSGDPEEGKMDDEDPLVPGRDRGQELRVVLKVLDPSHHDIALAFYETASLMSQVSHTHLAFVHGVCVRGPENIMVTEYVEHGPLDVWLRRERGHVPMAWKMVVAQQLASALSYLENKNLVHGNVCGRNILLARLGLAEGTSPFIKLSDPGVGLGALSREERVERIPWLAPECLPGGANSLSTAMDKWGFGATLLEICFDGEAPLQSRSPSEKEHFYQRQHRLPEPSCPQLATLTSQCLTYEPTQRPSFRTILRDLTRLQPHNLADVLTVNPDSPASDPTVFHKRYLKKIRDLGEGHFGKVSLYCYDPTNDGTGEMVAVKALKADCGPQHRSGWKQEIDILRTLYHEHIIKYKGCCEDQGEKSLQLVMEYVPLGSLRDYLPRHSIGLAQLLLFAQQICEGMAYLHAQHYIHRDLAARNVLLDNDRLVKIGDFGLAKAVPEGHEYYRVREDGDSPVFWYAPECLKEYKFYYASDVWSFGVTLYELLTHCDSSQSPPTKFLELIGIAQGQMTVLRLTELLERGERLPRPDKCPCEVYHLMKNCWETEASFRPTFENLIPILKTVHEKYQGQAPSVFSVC
Experimental: as §1

Recombinant JAK2 = molecular target: T3, Recombinant JAK2 (Homo sapiens, UniProt O60674); experiment: JAK biochemical assay (LANCE Ultra TR-FRET), JAK2; conditions: recombinant JAK2, TR-FRET; read-out: Biochemical Assay (μM) JAK2
T3 construct: purchased Carna Biosciences
T3 sequence (O60674 whole entry): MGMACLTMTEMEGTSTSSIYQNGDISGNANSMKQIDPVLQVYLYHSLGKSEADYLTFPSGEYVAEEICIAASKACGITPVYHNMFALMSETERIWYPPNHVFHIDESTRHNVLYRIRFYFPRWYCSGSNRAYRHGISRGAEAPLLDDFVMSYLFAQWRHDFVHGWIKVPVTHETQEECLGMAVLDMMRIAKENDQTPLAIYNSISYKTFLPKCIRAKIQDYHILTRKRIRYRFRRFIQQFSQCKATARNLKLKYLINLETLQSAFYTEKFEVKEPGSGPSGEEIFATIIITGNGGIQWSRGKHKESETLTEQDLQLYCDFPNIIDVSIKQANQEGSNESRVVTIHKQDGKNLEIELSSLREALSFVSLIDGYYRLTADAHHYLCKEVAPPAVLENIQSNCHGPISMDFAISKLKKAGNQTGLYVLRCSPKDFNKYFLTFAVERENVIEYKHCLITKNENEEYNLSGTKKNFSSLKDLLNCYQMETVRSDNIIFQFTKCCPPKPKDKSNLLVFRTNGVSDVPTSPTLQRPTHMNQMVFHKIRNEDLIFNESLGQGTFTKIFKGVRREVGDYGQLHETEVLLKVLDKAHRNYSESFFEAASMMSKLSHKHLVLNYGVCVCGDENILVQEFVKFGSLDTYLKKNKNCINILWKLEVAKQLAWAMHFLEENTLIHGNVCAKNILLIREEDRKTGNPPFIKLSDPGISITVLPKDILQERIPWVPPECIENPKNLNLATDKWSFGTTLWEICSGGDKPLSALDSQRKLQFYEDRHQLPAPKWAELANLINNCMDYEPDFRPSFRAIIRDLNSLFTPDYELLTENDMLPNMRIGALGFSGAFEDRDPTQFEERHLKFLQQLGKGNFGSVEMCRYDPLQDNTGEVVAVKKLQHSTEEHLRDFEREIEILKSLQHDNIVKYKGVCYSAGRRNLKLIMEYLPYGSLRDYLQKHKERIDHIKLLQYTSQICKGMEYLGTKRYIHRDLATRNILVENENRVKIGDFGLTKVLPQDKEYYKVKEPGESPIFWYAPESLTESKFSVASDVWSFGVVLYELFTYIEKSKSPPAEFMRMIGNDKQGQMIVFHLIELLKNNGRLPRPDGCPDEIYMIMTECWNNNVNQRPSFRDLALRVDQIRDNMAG
Experimental: as §1

Recombinant JAK1 = molecular target: T4, Recombinant JAK1 (Homo sapiens, UniProt P23458); experiment: JAK biochemical assay (LANCE Ultra TR-FRET), JAK1; conditions: recombinant JAK1, TR-FRET; read-out: Biochemical Assay (μM) JAK1
T4 construct: purchased Carna Biosciences
T4 sequence (P23458 whole entry): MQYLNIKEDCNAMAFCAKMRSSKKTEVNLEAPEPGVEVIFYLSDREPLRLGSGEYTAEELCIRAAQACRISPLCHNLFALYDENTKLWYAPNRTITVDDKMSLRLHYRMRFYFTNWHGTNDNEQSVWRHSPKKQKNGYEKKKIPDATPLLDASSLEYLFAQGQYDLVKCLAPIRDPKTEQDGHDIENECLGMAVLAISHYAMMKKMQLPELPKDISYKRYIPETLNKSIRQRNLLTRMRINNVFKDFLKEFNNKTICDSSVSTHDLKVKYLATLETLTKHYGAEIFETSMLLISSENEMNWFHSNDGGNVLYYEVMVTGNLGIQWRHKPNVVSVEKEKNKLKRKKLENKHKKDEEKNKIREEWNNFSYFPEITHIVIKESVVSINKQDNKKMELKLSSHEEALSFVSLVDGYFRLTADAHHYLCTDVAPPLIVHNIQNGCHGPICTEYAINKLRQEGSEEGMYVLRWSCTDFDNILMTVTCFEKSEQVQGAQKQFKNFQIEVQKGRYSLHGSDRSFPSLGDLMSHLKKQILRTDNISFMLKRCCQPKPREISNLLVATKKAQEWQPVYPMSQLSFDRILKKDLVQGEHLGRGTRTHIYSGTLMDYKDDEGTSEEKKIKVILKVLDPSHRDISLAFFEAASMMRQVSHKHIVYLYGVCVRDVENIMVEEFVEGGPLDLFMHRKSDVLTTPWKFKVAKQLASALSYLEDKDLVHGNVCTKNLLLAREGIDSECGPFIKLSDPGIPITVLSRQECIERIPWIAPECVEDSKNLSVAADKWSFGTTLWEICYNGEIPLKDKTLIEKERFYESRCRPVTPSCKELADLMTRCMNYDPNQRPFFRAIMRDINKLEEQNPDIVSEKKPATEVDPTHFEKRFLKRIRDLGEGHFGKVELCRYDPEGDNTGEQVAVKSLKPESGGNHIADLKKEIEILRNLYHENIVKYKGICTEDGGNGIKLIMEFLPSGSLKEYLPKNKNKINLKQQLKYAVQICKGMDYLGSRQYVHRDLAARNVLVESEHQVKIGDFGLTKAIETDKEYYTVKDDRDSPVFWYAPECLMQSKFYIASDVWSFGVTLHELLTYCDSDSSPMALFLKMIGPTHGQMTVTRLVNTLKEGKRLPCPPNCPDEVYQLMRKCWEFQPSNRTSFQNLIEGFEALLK
Experimental: as §1

| Compound | IC50 (Recombinant JAK3) [µM] | IC50 (Recombinant TYK2) [µM] | IC50 (Recombinant JAK2) [µM] | IC50 (Recombinant JAK1) [µM] |
| --- | --- | --- | --- | --- |
| O=C(Nc1ccc(-c2ccnc3[nH]c(=O)[nH]c23)cc1)N1CCOCC1 [Example 1008, N-(4-(2,3-dihydro-2-oxo-1H-imidazo[4,5-b]pyridin-7-yl)phenyl)morpholine-4-carboxamide] | > 1 | > 10 | > 1 | > 1 |
| O=C(Nc1ccncc1)Nc1ccc(-c2ccnc3[nH]c(=O)[nH]c23)cc1 [Example 1009, 1-(4-(2,3-dihydro-2-oxo-1H-imidazo[4,5-b]pyridin-7-yl)phenyl)-3-(pyridin-4-yl)urea] | > 1 | > 10 | > 0.5 | > 10 |
| O=C(NCC(F)(F)F)Nc1ccc(-c2ccnc3[nH]cnc23)cc1 [Example 1010, 1-(4-(3H-imidazo[4,5-b]pyridin-7-yl)phenyl)-3-(2,2,2-trifluoroethyl)urea] | > 0.5 | > 1 | < 0.5 | < 0.5 |
| CS(=O)(=O)CCNC(=O)N1CCN(c2ccnc3[nH]c(=O)[nH]c23)CC1 [Example 1013, 4-(2,3-dihydro-2-oxo-1H-imidazo[4,5-b]pyridin-7-yl)-N-(2-(methylsulfonyl)ethyl)piperazine-1-carboxamide] | > 10 | > 10 | > 10 | > 10 |
| CS(=O)(=O)N1CCC(NC(=O)N2CCN(c3ccnc4[nH]c(=O)[nH]c34)CC2)CC1 [Example 1016, N-(1-(methylsulfonyl)piperidin-4-yl)-4-(2-oxo-2,3-dihydro-1H-imidazo[4,5-b]pyridin-7-yl)piperazine-1-carboxamide] | > 10 | > 10 | > 10 | > 10 |
| O=C(NCC1CCCC1)N1CCN(c2ccnc3[nH]c(=O)[nH]c23)CC1 [Example 1017, N-(cyclopentylmethyl)-4-(2,3-dihydro-2-oxo-1H-imidazo[4,5-b]pyridin-7-yl)piperazine-1-carboxamide] | > 10 | > 10 | > 1 | > 1 |
| O=C(N1CCN(c2ccnc3[nH]c(=O)[nH]c23)CC1)N1CCS(=O)(=O)CC1 [Example 1018, 7-(4-(1,1-dioxidothiomorpholine-4-carbonyl)piperazin-1-yl)-1,3-dihydro-2H-imidazo[4,5-b]pyridin-2-one] | > 10 | > 10 | > 10 | > 10 |
| O=C(NC1CCS(=O)(=O)CC1)N1CCN(c2ccnc3[nH]c(=O)[nH]c23)CC1 [Example 1020, N-(1,1-dioxidotetrahydro-2H-thiopyran-4-yl)-4-(2-oxo-2,3-dihydro-1H-imidazo[4,5-b]pyridin-7-yl)piperazine-1-carboxamide] | > 10 | > 10 | > 10 | > 10 |
| CC1(C)CN(C(=O)N2CCN(c3ccnc4[nH]c(=O)[nH]c34)CC2)C1 [Example 1023, 7-(4-(3,3-dimethylazetidine-1-carbonyl)piperazin-1-yl)-1,3-dihydro-2H-imidazo[4,5-b]pyridin-2-one] | > 10 | > 10 | > 10 | > 10 |
| Cc1cc(S(C)(=O)=O)ccc1NC(=O)N1CCN(c2ccnc3[nH]c(=O)[nH]c23)CC1 [Example 1024, 4-(2,3-dihydro-2-oxo-1H-imidazo[4,5-b]pyridin-7-yl)-N-(2-methyl-4-(methylsulfonyl)phenyl)piperazine-1-carboxamide] | > 1 | > 1 | > 1 | > 1 |
| O=C(CN1CCN(c2ccnc3[nH]c(=O)[nH]c23)CC1)NCC(F)(F)F [Example 1025, N-(2,2,2-trifluoroethyl)-2-(4-(2,3-dihydro-2-oxo-1H-imidazo[4,5-b]pyridin-7-yl)piperazin-1-yl)acetamide] | > 10 | > 10 | > 10 | > 10 |

More lines, now with the values ahead:

| IC50 (Recombinant JAK3) [µM] | IC50 (Recombinant TYK2) [µM] | IC50 (Recombinant JAK2) [µM] | IC50 (Recombinant JAK1) [µM] | Compound |
| --- | --- | --- | --- | --- |
| > 1 | > 1 | > 1 | > 1 | O=C(NCC(F)(F)F)n1ccc(-c2ccnc3[nH]c(=O)[nH]c23)c1 [Example 1028, N-(2,2,2-trifluoroethyl)-3-(2,3-dihydro-2-oxo-1H-imidazo[4,5-b]pyridin-7-yl)-1H-pyrrole-1-carboxamide] |
| > 10 | > 10 | > 10 | > 10 | Cn1c(=O)[nH]c2nccc(-c3cnn(C(=O)NCC(F)(F)F)c3)c21 [Example 1029, N-(2,2,2-trifluoroethyl)-4-(2,3-dihydro-1-methyl-2-oxo-1H-imidazo[4,5-b]pyridin-7-yl)-1H-pyrazole-1-carboxamide] |
| > 1 | > 1 | > 1 | > 1 | O=C(CCC(F)(F)F)n1cc(-c2ccnc3[nH]c(=O)[nH]c23)cn1 [Example 1031, 7-(1-(4,4,4-trifluorobutanoyl)-1H-pyrazol-4-yl)-1H-imidazo[4,5-b]pyridin-2(3H)-one] |
| > 10 | > 10 | > 1 | > 1 | O=C(NCC1CCCC1)n1cc(-c2ccnc3[nH]c(=O)[nH]c23)cn1 [Example 1034, N-(cyclopentylmethyl)-4-(2,3-dihydro-2-oxo-1H-imidazo[4,5-b]pyridin-7-yl)-1H-pyrazole-1-carboxamide] |
| > 10 | > 10 | > 10 | > 10 | N#CCNC(=O)n1cc(-c2ccnc3[nH]c(=O)[nH]c23)cn1 [Example 1035, N-(cyanomethyl)-4-(2,3-dihydro-2-oxo-1H-imidazo[4,5-b]pyridin-7-yl)-1H-pyrazole-1-carboxamide hydrochloride] |
| > 10 | > 10 | > 10 | > 10 | O=C(NCC(F)(F)F)n1cc(-c2cccc3[nH]c(=O)[nH]c23)cn1 [Example 1036, N-(2,2,2-trifluoroethyl)-4-(2,3-dihydro-2-oxo-1H-benzo[d]imidazol-4-yl)-1H-pyrazole-1-carboxamide] |
| > 10 | > 10 | > 1 | > 10 | CCn1c(=O)[nH]c2nccc(-c3cnn(C(=O)NCC(F)(F)F)c3)c21 [Example 1042, 4-(1-ethyl-2,3-dihydro-2-oxo-1H-imidazo[4,5-b]pyridin-7-yl)-N-(2,2,2-trifluoroethyl)-1H-pyrazole-1-carboxamide] |
| > 1 | > 1 | > 1 | > 1 | O=C1Cc2c(-c3cnn(C(=O)NCC(F)(F)F)c3)ccnc2N1 [Example 1045, N-(2,2,2-trifluoroethyl)-4-(2,3-dihydro-2-oxo-1H-pyrrolo[2,3-b]pyridin-4-yl)-1H-pyrazole-1-carboxamide] |
| > 0.5 | > 1 | > 0.5 | > 0.5 | N#CCC1CCN(C(=O)n2cc(-c3ccnc4[nH]c(=O)[nH]c34)cn2)C1 (stereo not drawn) [Example 1057, 2-(1-(4-(2-oxo-2,3-dihydro-1H-imidazo[4,5-b]pyridin-7-yl)-1H-pyrazole-1-carbonyl)pyrrolidin-3-yl)acetonitrile] |
| > 10 | > 10 | > 1 | > 1 | N#CC1CN(C(=O)CNC(=O)n2cc(-c3ccnc4[nH]c(=O)[nH]c34)cn2)C1 [Example 1059, N-(2-(3-cyanoazetidin-1-yl)-2-oxoethyl)-4-(2-oxo-2,3-dihydro-1H-imidazo[4,5-b]pyridin-7-yl)-1H-pyrazole-1-carboxamide] |
